Our source for the inhibition in vivo and IC50 values is patent publication US8324245B2, “Quinoline derivative and quinazoline derivative inhibiting self-phosphorylation of hepatocytus proliferator receptor, and medicinal composition containing the same” (Kyowa Hakko Kirin Co., Ltd., priority 2001, dated 2012).

In assay [1] the test system is Human gastric cancer cells (MKN 45). Kind of assay: Tumor growth inhibitory activity against various human tumor cells in nude mice: MKN 45. The class given is in vivo. To be noted: Mus musculus, MKN-45, po, 120 h, MKN45, Oral, 5 days; read-out: TGIR. The protocol: Human gastric cancer cells (MKN 45) (obtained from RIKEN), human brain tumor cells (U87MG) (obtained from ATCC), human pancreatic cancer cells (KP4) (obtained from RIKEN), human pancreatic cancer cells (SUIT-2) (obtained from National Kyushu Cancer Center), and human signet-ring type gastric cancer cells (NUGC-4) (obtained from RIKEN), or human lung cancer cells (LC6) (obtained from Central Laboratories for Experimental Animals) were transplanted into nude mice. […] The test compound suspended in 0.5% methylcellulose was orally administered once or twice a day for 5 days. Only 0.5% methylcellulose was administered to the control group in the manner as in the test groups. Alternatively, the test compound dissolved in physiological saline (with a 1 N aqueous hydrochloric acid solution added thereto) was intraveneously injected once a day for 5 days, and only physiological saline (with a 1 N aqueous hydrochloric acid solution added thereto) was administered to the control group in the same manner as in the test groups. The tumor growth inhibition rate (TGIR) was calculated as follows: The tumor growth inhibition rate (TGIR)=(1−TX/CX)×100 wherein CX represents the relative tumor volume at the 5th day for the control group when the tumor volume at the day of the start of the administration was presumed to be 1; and TX represents the relative tumor volume for test compound administration groups.

Assay [2] addresses T1, met (HGF receptor) in human gastric cancer cells MKN45 (Homo sapiens, UniProt P08581).
T1 construct: endogenous in cells; host or cells: MKN45 human gastric cancer cells
Description: Inhibitory activity against met-autophosphorylation using ELISA method (2), MKN45 cells, HGF-independent. The assay is classed as cell-based. The procedure, abridged: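 MKN45 cells, 3×10^4 per well in RPMI with 0.1% FCS overnight, were exposed to compound in DMSO for 1 h at 37 °C without HGF. Lysates were captured on anti-phosphotyrosine (PY20) plates, Met detected with anti-Met and peroxidase secondary antibody, absorbance at 450 nm.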
For orientation: ELISA stands for enzyme-linked immunosorbent assay.

T1 sequence (P08581 25-1390): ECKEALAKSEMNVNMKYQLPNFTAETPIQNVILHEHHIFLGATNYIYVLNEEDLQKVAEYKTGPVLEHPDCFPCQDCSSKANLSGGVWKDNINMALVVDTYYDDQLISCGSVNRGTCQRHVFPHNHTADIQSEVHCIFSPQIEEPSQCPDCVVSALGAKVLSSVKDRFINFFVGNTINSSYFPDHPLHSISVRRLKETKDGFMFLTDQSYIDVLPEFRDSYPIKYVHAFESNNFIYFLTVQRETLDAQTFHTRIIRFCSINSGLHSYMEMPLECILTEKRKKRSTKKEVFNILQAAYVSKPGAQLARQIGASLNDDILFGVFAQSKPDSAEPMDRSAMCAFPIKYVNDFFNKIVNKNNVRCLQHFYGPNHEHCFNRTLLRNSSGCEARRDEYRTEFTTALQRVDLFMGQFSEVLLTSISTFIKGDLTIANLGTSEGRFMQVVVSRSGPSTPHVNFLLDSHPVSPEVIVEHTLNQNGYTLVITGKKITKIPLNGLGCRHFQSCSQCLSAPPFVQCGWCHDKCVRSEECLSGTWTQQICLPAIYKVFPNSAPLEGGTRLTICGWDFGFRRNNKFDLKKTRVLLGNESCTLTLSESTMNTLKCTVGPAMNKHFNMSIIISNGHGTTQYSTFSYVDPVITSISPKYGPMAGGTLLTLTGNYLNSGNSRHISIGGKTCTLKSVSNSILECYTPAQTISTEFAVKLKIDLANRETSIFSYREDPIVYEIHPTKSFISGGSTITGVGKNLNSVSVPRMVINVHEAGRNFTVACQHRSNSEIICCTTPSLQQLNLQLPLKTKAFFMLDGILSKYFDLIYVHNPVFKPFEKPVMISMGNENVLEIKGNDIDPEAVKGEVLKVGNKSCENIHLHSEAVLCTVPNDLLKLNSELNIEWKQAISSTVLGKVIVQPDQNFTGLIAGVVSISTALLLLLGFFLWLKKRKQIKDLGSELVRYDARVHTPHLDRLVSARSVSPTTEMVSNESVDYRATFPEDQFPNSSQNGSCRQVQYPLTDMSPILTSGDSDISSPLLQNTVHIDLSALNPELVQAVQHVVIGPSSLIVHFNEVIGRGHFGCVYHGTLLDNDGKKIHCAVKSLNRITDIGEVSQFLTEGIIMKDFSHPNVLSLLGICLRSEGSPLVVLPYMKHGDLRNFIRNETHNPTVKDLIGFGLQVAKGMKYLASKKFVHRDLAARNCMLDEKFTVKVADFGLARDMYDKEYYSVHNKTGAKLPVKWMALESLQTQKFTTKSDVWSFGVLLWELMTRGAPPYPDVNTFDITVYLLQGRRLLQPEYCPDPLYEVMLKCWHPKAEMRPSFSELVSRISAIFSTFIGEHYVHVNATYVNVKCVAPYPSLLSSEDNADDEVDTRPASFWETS

Consider `COc1cc2c(Oc3ccc(NC(=S)NC(=O)Cc4ccc(F)cc4)cc3F)ccnc2cc1OCCN1CCOCC1` [Example 277, 1-{3-Fluoro-4-[6-methoxy-7-(2-morpholin-4-yl-ethoxy)-quinolin-4-yloxy]-phenyl}-3-[2-(4-fluorophenyl)-acetyl]-thiourea], for which, in assay [1], the inhibition in vivo at 30 mg/kg came out at 17%. Moreover, it took 20.4 nM to reach half-maximal inhibition in assay [2] (IC50).
On to `COc1cc2c(Oc3ccc(NC(=S)NC(=O)Cc4ccc(F)cc4)cc3F)ccnc2cc1OCCN1CCC(CO)CC1` [Example 282, 1-(3-Fluoro-4-{7-[2-(4-hydroxymethyl-piperidin-1-yl)ethoxy]-6-methoxy-quinolin-4-yloxy}-phenyl)-3-[2-(4-fluoro-phenyl)-acetyl]-thiourea], for which, in assay [1], the inhibition in vivo at 30 mg/kg came out at 13%. The IC50 in assay [2] was determined as 16.6 nM.
On to `COc1cc2c(Oc3ccc(NC(=S)NC(=O)Cc4ccccc4F)cc3F)ccnc2cc1OCCCN1CCOCC1` [Example 288, 1-{3-Fluoro-4-[6-methoxy-7-(3-morpholin-4-yl-propoxy)-quinolin-4-yloxy]-phenyl}-3-[2-(2-fluoro-phenyl)-acetyl]-thiourea], for which the inhibition in vivo at 30 mg/kg in assay [1] amounted to 64%. In assay [2], this compound registered a half-inhibitory concentration (IC50) of 22.6 nM.
Take `COc1cc2c(Oc3ccc(NC(=S)NC(=O)Cc4cccc(F)c4)cc3Cl)ccnc2cc1OCCCN1CCOCC1` [Example 299, 1-{3-Chloro-4-[6-methoxy-7-(3-morpholin-yl-propoxy)-quinolin-4-yloxy]-phenyl}-3-[2-(3-fluoro-phenyl)-acetyl]-thiourea]: the inhibition in vivo at 25 mg/kg in assay [1] stood at 14%. For the same compound, the IC50 in assay [2] came to 43.5 nM.
As to `COc1cc2c(Oc3ccc(NC(=S)NC(=O)Cc4ccccc4)cc3F)ccnc2cc1OCC(O)CN1CCOCC1` (centres unmarked) [Example 312, 1-{3-Fluoro-4-[7-(2-hydroxy-3-morpholin-4-yl-propoxy)-6-methoxy-quinolin-4-yloxy]-phenyl}-3-phenylacetyl-thiourea], the inhibition in vivo at 30 mg/kg in assay [1] was 75%. The same compound displayed an IC50 in assay [2] of 19.1 nM.
On the same counts, the results for `COc1cc2c(Oc3ccc(NC(=S)NC(=O)Cc4ccccc4Cl)cc3F)ccnc2cc1OCC(O)CN1CCOCC1` (centres unmarked) [Example 314, 1-[2-(2-Chloro-phenyl)-acetyl]-3-{3-fluoro-4-[7-(2-hydroxy-3-morpholin-4-yl-propoxy)-6-methoxy-quinolin-4-yloxy]-phenyl}-thiourea] are 38% and 23.2 nM.
Regarding `COc1cc2c(Oc3ccc(NC(=S)NC(=O)Cc4ccccc4F)cc3F)ccnc2cc1OCC(O)CN1CCOCC1` (centres unmarked) [Example 315], the inhibition in vivo at 30 mg/kg in assay [1] was 36%. In assay [2], this compound displayed an IC50 of 21 nM.
For `COc1cc2c(Oc3ccc(NC(=S)NC(=O)Cc4cccc(Cl)c4)cc3F)ccnc2cc1OCC(O)CN1CCOCC1` (centres unmarked) [Example 320, 1-[2-(3-Chloro-phenyl)-acetyl]-3-{3-fluoro-4-[7-(2-hydroxy-3-morpholin-4-yl-propoxy)-6-methoxy-quinolin-4-yloxy]-phenyl}-thiourea], the inhibition in vivo at 30 mg/kg in assay [1] is 20%. This compound yielded a half-maximal inhibitory concentration (IC50) in assay [2] of 14 nM.
Take `COc1cc2c(Oc3ccc(NC(=S)NC(=O)Cc4cccc(F)c4)cc3F)ccnc2cc1OCC(O)CN1CCOCC1` (centres unmarked) [Example 323, 1-{3-Fluoro-4-[7-(2-hydroxy-3-morpholin-4-yl-propoxy)-6-methoxy-quinolin-4-yloxy]-phenyl}-3-[2-(3-fluoro-phenyl)-acetyl]-thiourea]: in assay [1], the inhibition in vivo at 30 mg/kg stood at 34%. For the same compound, the IC50 in assay [2] was < 10 nM.
As for `COc1cc2c(Oc3ccc(NC(=S)NC(=O)Cc4ccc(Cl)cc4)cc3F)ccnc2cc1OCC(O)CN1CCOCC1` (centres unmarked) [Example 326, 1-[2-(4-Chloro-phenyl)-acetyl]-3-{3-fluoro-4-[7-(2-hydroxy-3-morpholin-4-yl-propoxy)-6-methoxy-quinolin-4-yloxy]-phenyl}-thiourea], the inhibition in vivo at 30 mg/kg in assay [1] amounted to 17%. In assay [2], this compound came in with an IC50 of 13.1 nM.
Consider `COc1cc2c(Oc3ccc(NC(=S)NC(=O)Cc4ccc(Cl)cc4)cc3F)ccnc2cc1OCC(O)CN1CCCCC1` (centres unmarked) [Example 327, 1-[2-(4-Chloro-phenyl)-acetyl]-3-{3-fluoro-4-[7-(2-hydroxy-3-piperidin-1-yl-propoxy)-6-methoxy-quinolin-4-yloxy]-phenyl}-thiourea], for which the concentration for half-maximal inhibition (IC50) in assay [2] was 798 nM.
Consider `COc1cc2c(Oc3ccc(NC(=S)NC(=O)Cc4ccc(Cl)cc4)cc3F)ccnc2cc1OCC(O)CN1CCCC1` (centres unmarked) [Example 328, 1-[2-(4-Chloro-phenyl)-acetyl]-3-{3-fluoro-4-[7-(2-hydroxy-3-pyrrolidin-1-yl-propoxy)-6-methoxy-quinolin-4-yloxy]-phenyl}-thiourea], for which, in assay [2], half-maximal inhibition (IC50) was put at 43.2 nM.
The compound `COc1cc2c(Oc3ccc(NC(=S)NC(=O)Cc4ccc(F)cc4)cc3F)ccnc2cc1OCC(O)CN1CCCCC1` (centres unmarked) [Example 329, 1-{3-Fluoro-4-[7-(2-hydroxy-3-piperidin-1-yl-propoxy)-6-methoxy-quinolin-4-yloxy]-phenyl}-3-[2-(4-fluoro-phenyl)-acetyl]-thiourea] came in with a half-inhibitory concentration (IC50) in assay [2] of 51.8 nM.
Still for that read-out and setting: the result for `COc1cc2c(Oc3ccc(NC(=S)NC(=O)Cc4ccc(F)cc4)cc3F)ccnc2cc1OCC(O)CN1CCCC1` (centres unmarked) [Example 330, 1-{3-Fluoro-4-[7-(2-hydroxy-3-pyrrolidin-1-yl-propoxy)-6-methoxy-quinolin-4-yloxy]-phenyl}-3-[2-(4-fluoro-phenyl)-acetyl]-thiourea] reads 20.6 nM.
Consider `COc1cc2c(Oc3ccc(NC(=S)NC(=O)Cc4ccccc4)cc3F)ccnc2cc1OCC(O)CN1CCCCC1` (centres unmarked) [Example 331], for which the inhibition in vivo at 30 mg/kg in assay [1] is 40%. The compound further had a concentration for half-maximal inhibition (IC50) in assay [2] of 22 nM.
On the same counts, the results for `COc1cc2c(Oc3ccc(NC(=S)NC(=O)Cc4ccccc4)cc3F)ccnc2cc1OCC(O)CN1CCCC1` (centres unmarked) [Example 332, 1-{3-Fluoro-4-[7-(2-hydroxy-3-pyrrolidin-1-yl-propoxy)-6-methoxy-quinolin-4-yloxy]-phenyl}-3-(2-phenyl-acetyl)-thiourea] are 14% and 14.2 nM.
On the same counts, the results for `COc1cc2c(Oc3ccc(NC(=S)NC(=O)Cc4ccccc4C)cc3F)ccnc2cc1OCC(O)CN1CCOCC1` (centres unmarked) [Example 333] are 75% and 21.1 nM.
Take `COc1cc2c(Oc3ccc(NC(=S)NC(=O)Cc4cccc(C)c4)cc3F)ccnc2cc1OCC(O)CN1CCOCC1` (centres unmarked) [Example 334]: the inhibition in vivo at 30 mg/kg in assay [1] turned out to be 65%. This compound also yielded an IC50 in assay [2] of 22.7 nM.
`COc1cc2c(Oc3ccc(NC(=S)NC(=O)Cc4ccc(C)cc4)cc3F)ccnc2cc1OCC(O)CN1CCOCC1` (centres unmarked) [Example 335] gave a half-inhibitory concentration (IC50) in assay [2] of 23.6 nM.
In assay [2], `COc1cc2c(Oc3ccc(NC(=O)NC(=O)Cc4ccc(F)cc4)cc3F)ccnc2cc1OCC(O)CN1CCOCC1` (centres unmarked) [Example 336, 1-{3-Fluoro-4-[7-(2-hydroxy-3-morpholin-1-yl-propoxy)-6-methoxy-quinolin-4-yloxy]-phenyl}-3-[2-(4-fluoro-phenyl)-acetyl]-urea] yielded an IC50 of 32.8 nM.
`COc1cc2c(Oc3ccc(NC(=O)NC(=O)Cc4ccccc4)cc3F)ccnc2cc1OCC(O)CN1CCOCC1` (centres unmarked) [Example 337, 1-{3-Fluoro-4-[7-(2-hydroxy-3-morpholin-1-yl-propoxy)-6-methoxy-quinolin-4-yloxy]-phenyl}-3-(2-phenyl-acetyl)-urea] gave a concentration for half-maximal inhibition (IC50) in assay [2] of 22 nM.

For orientation: IC50 means the concentration that inhibits the measured activity by half. Low readings indicate greater potency, high ones weaker potency.
